Assay results reported in patent US11931365B2, “Use of PPAR-delta agonists in the treatment of disease” (Reneo Pharmaceuticals, Inc., priority 2022, dated 2024).
Marks after values point to notes of the source that are not given here.

What was measured:
[1] = Stability of solid state forms (storage, drying), XRPD; assay type: physicochemical
Procedure: Samples were assessed for stability under ambient or static storage conditions of 25° C./[…] and 40° C./75% RH for 7 or 10 days. The samples were then re-analyzed by XRPD. Subsequent XRPD analysis results for the crystalline forms are described below: […]

[2] = Gravimetric Vapor Sorption (GVS); assay type: physicochemical; details: 25° C., w/w
Procedure: Sorption isotherms were obtained using a SMS DVS Intrinsic moisture sorption analyzer, controlled by DVS Intrinsic Control software. The sample temperature was maintained at 25° C. by the instrument controls. The humidity was controlled by mixing streams of dry and wet nitrogen, with a total flow rate of 200 ml/min. The relative humidity was measured by a calibrated Rotronic probe (dynamic range of 1.0-100% RH), located near the sample. The weight change, (mass relaxation) of the sample as a function of % RH was constantly monitored by a microbalance (accuracy ±0.005 mg).
Typically, 5-30 mg of sample was placed in a tared mesh stainless steel basket under ambient conditions. The sample was loaded and unloaded at 40% RH and 25° C. (typical room conditions). A moisture sorption isotherm was performed as outlined below (2 scans per complete cycle). The standard isotherm was performed at 25° C. at 10% RH intervals over a 0-90% RH range. Typically, a double cycle (4 scans) was carried out. Data analysis was carried out within Microsoft Excel using the DVS Analysis Suite.

[3] = XRPD re-analysis after GVS isotherm; assay type: physicochemical; details: after isotherm at 90% RH and 25° C.
Procedure: The samples were recovered after completion of the isotherm experiment at 90% RH and 25° C. and re-analyzed by XRPD.

[4] = Competitive slurries Form 1 / Form 2 (thermodynamic stability); assay type: physicochemical; details: water activities 0.4-0.8; 5, 25, 50° C.
Procedure: Competitive slurries aiming to determine the order of stability between Form 1 and Form 2 were performed in a range of water activities (0.4-0.8).
Crystalline Form 1 (2 g) and Crystalline Hydrate Form 2 (2 g) were lightly ground together using a mortar and pestle and then mixed using a roller mixer for approximately 2 hours. An XRPD was collected on this sample.
Saturated solutions at 5° C./25° C. were prepared by suspending the mixed sample (200 mg) in 4 ml of the selected solvent and saturated solutions were prepared at 50° C. by suspending the mixed sample (100 mg) in 1 ml of the selected solvent. The saturated solutions were left stirring for 3 hrs at 25° C. and 50° C. The saturated solutions at 25° C. were filtered and split into solutions at 5° C. and 25° C. The mixed sample (50 mg) was added to the filtered solutions. Two control samples of Form 2 (50 mg) were prepared in 1 ml of acetone:water (99:1) and EtOH:water (95:5) and left stirring at 5° C., 25° C. and 50° C.

[5] = tested on: CPT2; details: patient fibroblasts, mild CPT2 mutations; Djouadi 2003; cited from earlier work
[6] = tested on: CPT2-deficient myoblasts; details: Djouadi 2005; cited from earlier work
[7] = tested on: patient fibroblasts (VLCAD, LCHAD, TFP deficiencies); details: Goddeeris 2017; cited from earlier work
[8] = Variable temperature XRPD (heating); assay type: physicochemical; details: heating to 110° C.
Procedure: For variable temperature (VT-XRPD) experiments the samples were prepared and analyzed in an Anton Paar chromed sample holder. A heating/cooling rate of 10° C./min was used with a 2 min isothermal hold before the measurement started. The measurement parameters are as per the standard screening data collection method (detailed above). Measurements were taken at the following temperatures: […]

[9] = listed as crystalline Form 4 of Compound II

Cc1cc(OC/C=C(/c2ccc(F)cc2)c2ccc(C#CCN3CCOCC3)cc2)ccc1OCC(=O)[O-].[Na+] [Form 1, sodium (E)-2-(4-((3-(4-fluorophenyl)-3-(4-(3-morpholinoprop-1-yn-1-yl)phenyl)allyl)oxy)-2-methylphenoxy)acetate]
time to complete conversion to Form 2 ([1]; 25° C./97% RH): 4 weeks | XRPD form after storage ([1]; 25° C./97% RH/7 days): Form 2 | XRPD form after storage ([1]; 40° C./75% RH/7 days): Unchanged (Form 1) | Reversible Water Uptake between 0-90% RH [2]: ~13.0% † | Reversible Water Uptake between 0-90% RH ([2]; listed as crystalline Form 1 of Compound II): ~13.0% | Solid State Form After GVS (XRPD) [3]: Unchanged (Form 1) | form found in competitive slurries of Form 1 and Form 2 [4]: present in most cases with no evidence of Form 2

CC(C)(Oc1ccc(CCNC(=O)c2ccc(Cl)cc2)cc1)C(=O)O [bezafibrate, 2-(4-{2-[(4-Chlorobenzoyl)amino]ethyl}phenoxy)-2-methylpropanoic acid]
activity of the deficient enzyme (CPT2) [5]: pharmacological enhancement | FAO [6]: able to restore FAO

Cc1cnc(-c2ccc(C(F)(F)F)cc2)n1Cc1ccccc1OCCC[C@@H](C)CC(=O)O [MA-0211]
fatty acid oxidation [7]: improvements

Cc1cc(OC/C=C(/c2ccc(F)cc2)c2ccc(C#CCN3CCOCC3)cc2)ccc1OCC(=O)[O-].[Na+] [Form 4, sodium (E)-2-(4-((3-(4-fluorophenyl)-3-(4-(3-morpholinoprop-1-yn-1-yl)phenyl)allyl)oxy)-2-methylphenoxy)acetate]
XRPD form after storage ([1]; 25° C./97% RH/7 days): Form 2 | XRPD form after storage ([1]; 25° C./97% RH/7 days, listed as crystalline Form 4 of Compound II): converts to Form 2 | XRPD form after storage ([1]; 40° C./75% RH/7 days): Form 1 | XRPD form after storage ([1]; 40° C./75% RH/7 days, listed as crystalline Form 4 of Compound II): converts to Form 1 | Reversible Water Uptake between 0-90% RH [2]: ~23% | Reversible Water Uptake between 0-90% RH [2, 9]: ~23% | Solid State Form After GVS (XRPD) [3]: Form 2 | Solid State Form After GVS (XRPD) [3, 9]: converts to Form 2 | XRPD after heating [8]: unchanged
